Results published in US20080299076A1, “Compunds and compositions that cause non-apoptotic cell death and uses thereof” (priority 2006, published 2008).
pIC50: −log10 of the molar value.

Experiments:
[1] = Stability in human plasma; format: in vitro ADME; conditions: after five hours
Experimental: (§1) The stability of erastin in mouse and human liver microsomes and in mouse and human plasma was assessed. In both human and mouse liver microsomes, after 1 hr, ˜30% of erastin was converted to its primary metabolite (the O-de-ethylated product). In both human and mouse plasma, only ˜10% of erastin was lost after five hours. Thus, erastin has sufficient metabolic and plasma stability to be tested in vivo in mice.

murine VDAC3 = molecular target: T1, murine VDAC3 (Mus musculus, UniProt Q60931); assay: NADH oxidation assay in mitochondria from yeast expressing VDAC3; format: biochemical; conditions: mitochondria from yeast expressing VDAC3 in place of yeast VDAC
T1 construct: expressed in transfected cells; host or cells: yeast (S. cerevisiae) with murine VDAC3 in place of yeast VDAC; isolated mitochondria
T1 sequence (Q60931 1-283): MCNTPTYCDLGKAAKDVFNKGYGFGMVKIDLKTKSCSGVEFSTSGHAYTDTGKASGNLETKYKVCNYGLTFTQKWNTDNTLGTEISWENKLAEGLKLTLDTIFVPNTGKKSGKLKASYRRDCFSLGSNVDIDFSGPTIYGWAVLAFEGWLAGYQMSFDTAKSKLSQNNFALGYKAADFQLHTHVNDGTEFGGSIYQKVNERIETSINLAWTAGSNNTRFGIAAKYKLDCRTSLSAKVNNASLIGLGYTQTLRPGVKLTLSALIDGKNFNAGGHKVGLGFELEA
Experimental: In certain embodiments, mitochondria can be purified from yeast that had been engineered to express murine or human VDAC3 in place of yeast VDAC.
Mitochondria were isolated from yeast expressing murine VDAC3 in place of yeast VDAC. The rate of NADH oxidation by an inner membrane NADH dehydrogenase was determined by measuring the change in NADH absorbance over time. Mitochondria with a disrupted outer membrane show an increased rate of NADH oxidation (red, shocked) compared to untreated mitochondria (green).
NADH oxidation in the mitochondria was measured by resuspending mitochondria isolated from yeast in R-buffer (0.65 M sucrose, 10 mM HEPES (pH 7.5), 10 mM KH2PO4, 5 mM KCl, 5 mM, MgCl2) to a final concentration of 100 μg/ml. Mitochondrial concentration was measured by dissolving mitochondria in 0.6% SDS and reading absorbance at 280 nm. The mitochondrial suspension was then incubated with 25 μM NADH, and the absorbance at 340 nm monitored over a 15 minute period. The assay was repeated in the presence of erastin. To assess mitochondrial intactness, a parallel assay was run in which mitochondria were hypotonically shocked prior to addition of NADH. The mitochondrial pellet was resuspended in dH2O and incubated on ice for 3 minutes to disrupt the outer mitochondrial membrane. 2× R-buffer was then added to restore normal osmotic conditions.

[2] = tested on: taxol resistant CCRF-CEM derivative cells; assay: Cell death in taxol/vinblastine resistance panel; format: cell-based; conditions: Homo sapiens
Experimental: (§2) In certain embodiments, the sensitivity to erastin, can be tested in cell lines that are resistant to taxol and vinblastine. The sensitivity of CCRF-CEM parental, and taxol and vinblastine resistant derivative cells to erastin was tested. […] Erastin analogues can be tested to ensure their effectiveness in inducing cell death in tumor cell line which are resistant to taxol or vinblastin, or other ant-tumor agents.

[3] = tested on: vinblastine resistant CCRF-CEM derivative cells; assay: Cell death in taxol/vinblastine resistance panel; format: cell-based; conditions: Homo sapiens
Experimental: as §2

CCRF-CEM parental cells = assay: Cell death in taxol/vinblastine resistance panel; format: cell-based; conditions: Homo sapiens
Experimental: as §2

cytochrome c = assay: Cytochrome c release from mitochondria; format: cell-based, human; conditions: BJ-TERT/LT/ST/RAS^V12 cells; staurosporine 1 μM or erastin 20 μg/mL, 6 h
Experimental: BJ-TERT/LT/ST/RAS^V12 cells were seeded in polystyrene 100×20 mm dishes in 10 ml media. After overnight incubation at 37° C. with 5% CO2, the cells were treated with nothing (NT), staurosporine (ST, 1 μM) or erastin (20 μg/mL) for 6 h, washed with 10 mL ice-cold PBS and lysed by passage through a 25-gauge needle (five strokes). Cell lysates were centrifuged at 1850 rpm for 5 min at 4° C. to remove the nuclear fraction. Mitochondria were removed from the soluble cytosolic fraction by pelleting at 10,000 rpm. Supernatant and mitochondrial pellets were solubilized in SDS-PAGE loading buffer and analyzed by western blot using anti-cytochrome c and pan-VDAC antibodies and IR-dye-linked secondary antibodies. VDACs are mitochondrial proteins, so their absence in the cytosolic lane indicates effective separation of cytosol (C) from mitochondria (M). Fluorescence was detected on a LI-COR Odyssey infrared scanner.
For the cytochrome c release assay, cells were washed with 10 mL of ice-cold PBS, suspended in 120 μL of buffer (300 mM sucrose, 0.1% BSA, 10 mM HEPES, pH 7.5, 10 mM KCl, 1.5 mM MgCl2, 1 mM EGTA, 1 mM EDTA, 1 mM dithiothreitol, 2 mM phenylmethanesulfonyl fluoride and 1 protease inhibitor tablet (Roche)) and incubated on ice for 15 min. […] Supernatant and mitochondrial pellets were solubilized in SDS-PAGE loading buffer and analyzed by western blotting.

[4] = Stability in mouse plasma; format: in vitro ADME; conditions: after five hours
Experimental: as §1

Calu-1 cells = assay: Sensitivity of Calu-1 lung carcinoma cells to erastin; format: cell-based; conditions: Homo sapiens; Calu-1 lung carcinoma cells with activating KRAS mutation
Experimental: Erastin was discovered, e.g., in a screen for oncogenic-HRAS-selective lethal compounds. KRAS is more frequently mutated in human cancers than HRAS. Thus, whether erastin is selectively lethal to tumor cells harboring oncogenic KRAS was tested. Calu-1 is a lung carcinoma cell line (Calu-1) with an activating mutation in KRAS. In certain embodiments, Calu-1 cells were sensitive to erastin (IC50=5 μM). Two different lentiviral constructs were used to reduce expression of mutant KRAS.
(Left panel) Calu-1 cells that had been infected with lentiviruses expressing shRNAs targeting GFP (as a control) or KRAS (targeting 19 nucleotides starting at nucleotide 269 or 509) were seeded in 6-well plates, treated with erastin and viability measured using Trypan Blue exclusion on a Beckman Vi-Cell. Error bars represent one SD. (Right panel) Western blot showing KRAS knockdown in Calu-1 cells. Top band=actin, Bottom band=KRAS. Calu-1 cells were infected with nothing (left lane), or lentiviruses containing shRNA constructs targeting GFP or KRAS. For KRAS, the shRNA was designed to match 19 nucleotides starting at the indicated nt.

Caspase-3 = Caspase-3 cleavage (western blot); format: cell-based

CCOc1ccccc1-n1c(C(C)N2CCN(C(=O)COc3ccc(Cl)cc3)CC2)nc2ccccc2c1=O (stereo not shown) [erastin, 2-(1-{4-[2-(4-Chloro-phenoxy)-acetyl]-piperazin-1-yl}-ethyl)-3-(2-ethoxy-phenyl)-3H-quinazolin-4-one]
compound lost [1]: ~10%
Rate of NADH oxidation / permeability of outer mitochondrial membrane to NADH (murine VDAC3): increases the permeability
Rate of NADH oxidation / permeability of outer mitochondrial membrane to NADH (murine VDAC3; listed as Erastin): increased the rate of NADH oxidation
pIC50 [2]: 5.15
pIC50 [3]: 5.10
pIC50 (CCRF-CEM parental cells): 4.96
Cytochrome c release from mitochondria (cytochrome c): does not induce cytochrome c release
compound lost [4]: ~10%
pIC50 (Calu-1 cells): 5.30
Caspase-3 cleavage (Caspase-3): not cleaved
